According to US5843902A, “Methods for treating prostate cancer with LHRH antagonists” (Praecis Pharmaceuticals Incorporated, priority 1996, dated 1998):
Square brackets hold non-standard residues; d marks the D form. Peptide text beside a SMILES is read from it. dPhe(4-Cl) = N[C@H](Cc1ccc(Cl)cc1)C(=O)O; d2Nal = N[C@H](Cc1ccc2ccccc2c1)C(=O)O; Lys(iPr) = CC(C)NCCCC[C@H](N)C(=O)O; NMeY = CN[C@@H](Cc1ccc(O)cc1)C(=O)O; d3Pal = N[C@H](Cc1cccnc1)C(=O)O

Key:
adult male rats = test: Plasma testosterone in adult male rats given PPI-149 by osmotic pump, then leuprolide; assay type: in vivo, rat; settings: for prevention of leuprolide-induced testosterone surge / suppression of plasma testosterone levels: rat
Method: In a first series of experiments, adult male rats were first administered an LHRH antagonist having the structure:
(referred to herein as PPI-149). PPI-149 was administered via a subcutaneous continuous osmotic minipump (e.g., the Alzet pump, commercially available from Alza, Palo Alto, Calif.) at a dose of 15 μg/kg/day or 50 μg/kg/day. PPI-149 administration continued for a total of 15-28 days according to several different protocols. A second pump releasing leuprolide (trade name: Lupron®) at 1.8 μg/kg/day was implanted such that there was an overlap of 0, 1 or 7 days with the previously-implanted pump releasing PPI-149.
In the experiment shown in FIG. 1, PPI-149 (at 15 μg/kg/day or 50 μg/kg/day) was administered by osmotic pump for 28 days and then this pump was removed and a second pump administering leuprolide (at 1.8 μg/kg/day) was implanted such that there was no overlap between the antagonist and agonist treatment. Plasma testosterone levels (in ng/ml) were measured during the prolonged administration of PPI-149 alone and following replacement of the PPI-149 pump with the leuprolide pump.
In the experiment shown in FIG. 2, PPI-149 (at 50 μg/kg/day) was administered by osmotic pump for 15 days and then a second pump administering leuprolide (at 1.8 μg/kg/day) was implanted such that there was one day of overlap between the antagonist and agonist treatment (i.e., the first PPI-149-releasing pump was removed one day after implantation of the second leuprolide-releasing pump). Plasma testosterone levels were measured during the prolonged administration of PPI-149 alone and following removal of the PPI-149 pump when leuprolide alone was administered.
(§1) In the experiment shown in FIG. 3, PPI-149 (at 15 μg/kg/day or 50 μg/kg/day) was administered by osmotic pump for 28 days and then a second pump administering leuprolide (at 1.8 μg/kg/day) was implanted such that there was one day of overlap between the antagonist and agonist treatment (i.e., the first PPI-149-releasing pump was removed one day after implantation of the second leuprolide-releasing pump). Plasma testosterone levels were measured during the prolonged administration of PPI-149 alone and following removal of the PPI-149 pump when leuprolide alone was administered.
as §1, with “4,” for “3,”, “were seven days” for “was one day”, “(i e.,” for “(i.e.,”, “seven days” for “one day”

male cynomolgus monkeys = test: Plasma testosterone in male cynomolgus monkeys given PPI-149 by osmotic pump, then depot leuprolide; assay type: in vivo; settings: cynomolgus monkey
Method: In a second series of experiments, male cynomolgus monkeys were administered the LHRH antagonist PPI-149 via a subcutaneous continuous osmotic minipump (Alzet pump; Alza, Palo Alto, Calif.) at a dose of 0, 30, 100 or 300 μg/kg/day for a period of 28 days. On day 28, pumps were removed and monkeys were administered a single intramuscular dose of the depot, sustained-release (one-month) formulation of Luprong, equivalent to 0.16 mg/kg. This dose of leuprolide is 1.6 times that used in the treatment of prostate cancer in humans (0.1 mg/kg) and 3.2 times that used in the treatment of endometriosis (0.05 mg/kg).

[1] = PPI-149 50 μg/kg/day osmotic pump 15 days, one day overlap with leuprolide 1.8 μg/kg/day (FIG. 2)
[2] = PPI-149 50 μg/kg/day osmotic pump 28 days, one day overlap with leuprolide 1.8 μg/kg/day (FIG. 3)
[3] = PPI-149 50 μg/kg/day osmotic pump 28 days, seven days overlap with leuprolide 1.8 μg/kg/day (FIG. 4)
[4] = PPI-149 50 μg/kg/day s.c. osmotic pump 28 days, no overlap with leuprolide 1.8 μg/kg/day (FIG. 1)

Question: `CC(=O)N[C@H](Cc1ccc2ccccc2c1)C(=O)N[C@H](Cc1ccc(Cl)cc1)C(=O)N[C@H](Cc1cccnc1)C(=O)N[C@@H](CO)C(=O)N(C)[C@@H](Cc1ccc(O)cc1)C(=O)N[C@H](CC(N)=O)C(=O)N[C@@H](CC(C)C)C(=O)N[C@@H](CCCCNC(C)C)C(=O)N1CCC[C@H]1C(=O)N[C@H](C)C(N)=O` [PPI-149, Ac-D-Nal^1,4-Cl-D-Phe^2, D-Pal^3, N-Me-Tyr^5, D-Asn^6, Lys(iPr)^8, D-Ala^10 -LHRH] (Ac-[d2Nal][dPhe(4-Cl)][d3Pal]S[NMeY][dN]L[Lys(iPr)]P[dA]-NH2) was tested. Which “prevention of testosterone surge induced by LHRH agonist (summary of FIGS. 1-4)” value (adult male rats; adult male rats, PPI-149 50 μg/kg/day, 0, 1 or 7 days) did it give?
Answer: The value was “can prevent the testosterone surge induced by LHRH agonist administration”.

Question: And the “prevention of leuprolide-induced testosterone surge” value (adult male rats; [1])?
Answer: The value was “prevented the leuprolide-induced testosterone surge”.

Question: And the “suppression of plasma testosterone levels” value (from here on “suppression”) (adult male rats; [1])?
Answer: The value was “suppressed plasma testosterone levels to castrate levels”.

Question: What about the “prevention of leuprolide-induced testosterone surge” value (adult male rats; [2]) of the same molecule?
Answer: The value was “prevented the leuprolide-induced testosterone surge”.

Question: What about the “suppression” value (adult male rats; [2]) of the same molecule?
Answer: Its value is “suppressed plasma testosterone levels to castrate levels”.

Question: And the “prevention of leuprolide-induced testosterone surge” value (adult male rats; [3])?
Answer: Its value is “prevented the leuprolide-induced testosterone surge”.

Question: What about the “suppression” value (adult male rats; [3]) of the same molecule?
Answer: The value was “suppressed plasma testosterone levels to castrate levels”.

Question: What about the “prevention of leuprolide-induced testosterone surge” value (adult male rats; [4]) of the same molecule?
Answer: Its value is “prevented the leuprolide-induced testosterone surge”.

Question: And the “suppression” value (adult male rats; [4])?
Answer: The value was “suppressed plasma testosterone levels to castrate levels”.

Question: What about the “blockade of testosterone surge from depot Lupron” value (male cynomolgus monkeys; PPI-149 100 μg/kg/day 28 days, pump removed, single i.m. one-month depot leuprolide equivalent to 0.16 mg/kg on day 28 (FIG. 5)) of the same molecule?
Answer: The value was “complete blockade of the testosterone surge”.

Question: And the “medical castration (plasma testosterone)” value (male cynomolgus monkeys; PPI-149 100 μg/kg/day s.c. osmotic pump 28 days (FIG. 5))?
Answer: The value was “rapid, complete medical castration within the first two days of treatment”.
